A value given as a limit tells only on which side of the number the result lay.

One test has as its target T1, DNA topoisomerase 1 (Homo sapiens, UniProt P11387).
T1 sequence (P11387 whole entry): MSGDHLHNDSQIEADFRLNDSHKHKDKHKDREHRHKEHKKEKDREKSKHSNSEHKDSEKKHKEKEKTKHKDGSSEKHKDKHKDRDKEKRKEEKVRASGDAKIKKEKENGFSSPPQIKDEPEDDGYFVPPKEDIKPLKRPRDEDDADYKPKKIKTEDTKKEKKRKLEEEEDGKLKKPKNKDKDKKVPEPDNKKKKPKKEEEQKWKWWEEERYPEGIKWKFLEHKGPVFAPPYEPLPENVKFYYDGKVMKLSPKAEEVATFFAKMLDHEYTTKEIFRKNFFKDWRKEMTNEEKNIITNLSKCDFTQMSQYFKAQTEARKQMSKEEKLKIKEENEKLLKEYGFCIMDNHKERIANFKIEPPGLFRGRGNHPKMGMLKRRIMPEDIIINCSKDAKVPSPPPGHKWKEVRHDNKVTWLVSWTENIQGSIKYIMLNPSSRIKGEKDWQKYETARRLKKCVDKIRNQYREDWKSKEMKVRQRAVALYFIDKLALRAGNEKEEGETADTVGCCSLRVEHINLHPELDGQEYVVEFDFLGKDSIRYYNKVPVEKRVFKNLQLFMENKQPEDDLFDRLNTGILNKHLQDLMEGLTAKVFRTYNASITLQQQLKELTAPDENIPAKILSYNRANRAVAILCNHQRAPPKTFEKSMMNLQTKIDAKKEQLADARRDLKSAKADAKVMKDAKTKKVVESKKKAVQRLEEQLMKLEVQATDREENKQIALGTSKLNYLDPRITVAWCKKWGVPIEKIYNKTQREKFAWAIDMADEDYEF
As to the kind of experiment: Topoisomerase I Relaxation Assay. The following applies: pH 7.8; 37 °C. How it is done:
Supercoiled pHOT1 DNA (0.5 μg) was incubated with four units of human topoisomerase I in relaxation buffer (10mM Tris-HCl (pH 7.8), 1mM EDTA, 0.15M NaCl, 0.1% BSA, 0.1 spermidine, 5% glycerol), in the presence of varying concentrations of the test compounds. Reactions were carried out at 37 °Cfor 1 h and then terminated by the addition of sodium dodecyl sulfate (SDS) to 0.25% and proteinase K to 50 μg/ml. The reaction mixture was subjected to electrophoresis through a 0.8% agarose gel containing […] in TAE buffer ([…] and 1mM EDTA). The gels were stained with ethidium bromide and photographed under UV light. For the quantitative determination of topoisomerase concentration activity, photographic negatives were scanned and the area representing supercoiled DNA, migrating as a single band at the bottom of the gel was measured using UVI-KS4000i gel documentation and analysis system (SyngenBiotech, Sacramento, CA).

The target in test [1] is DNA topoisomerase I (Homo sapiens). As to the kind of experiment: Supercoiled pHOT1 DNA (0.5 μg) was incubated with four units of human topoisomerase I in relaxation buffer (10mM Tris-HCl (pH 7.8), 1mM EDTA, 0.15M NaCl, 0.1% BSA, 0.1 spermidine, 5% glycerol), in the presence of varying concentrations of the test compounds. Reactions were carried out at 37 °Cfor 1 h and then terminated by the addition o.

Consider `CCc1ccc(NC(=S)NNC(=O)C2CCNCC2)cc1` [DNA topoisomerase inhibitor, 7], for which the IC50 (against DNA topoisomerase 1; in test [1]) was greater than 350 µM each time.
In turn, `COc1cc([C@@H]2c3cc4c(cc3[C@@H](O[C@@H]3O[C@@H]5CO[C@@H](C)O[C@H]5[C@H](O)[C@H]3O)[C@H]3COC(=O)[C@H]23)OCO4)cc(OC)c1O` [4'-Demethylepipodophyllotoxin 9-(4,6-O-(R)-ethylidene-beta-D-glucopyranoside)] gave an IC50 at DNA topoisomerase 1 greater than 350 µM.
For `O=C(NC(=S)NNC(=O)c1cc2ccccc2[nH]1)c1ccccc1` [DNA topoisomerase inhibitor, 2], the IC50 against DNA topoisomerase 1 turned out to be 100 µM; in test [1] it was 50 µM.
As for `Cc1nc[nH]c1C(=O)NNC(=S)NC(=O)c1ccccc1` [DNA topoisomerase inhibitor, 1], the IC50 turned out to be 100 µM on DNA topoisomerase 1 and 50 µM in test [1].
In the same order, the values of `O=C(NNC(=S)Nc1ccc(I)cc1)C1CCNCC1` [DNA topoisomerase inhibitor, 5] are 250 µM and 250 µM.
For `COc1ccc(NC(=S)NNC(=O)C2CCNCC2)cc1` [DNA topoisomerase inhibitor, 4], in that order: 250 µM and 250 µM.
Regarding `O=C(NNC(=S)Nc1ccc(Br)cc1)C1CCNCC1` [DNA topoisomerase inhibitor, 6], the IC50 (at DNA topoisomerase 1; in test [1]) was 250 µM throughout.
As to `CCNC(=S)NNC(=O)C1CCNCC1` [DNA topoisomerase inhibitor, 8], the IC50 (against DNA topoisomerase 1; in test [1]) was greater than 350 µM each time.
Turning to `O=C(NNC(=S)Nc1ccccc1)C1CCNCC1` [DNA topoisomerase inhibitor, 3], the IC50 (against DNA topoisomerase 1; in test [1]) was 250 µM each time.

(Values after BindingDB's records for doi:10.3109/14756366.2013.768987 (Medical University, 2014).)
